Results: ChEMBL document CHEMBL1201862, “PubChem BioAssay data set” (2004)
The source made the active and inactive calls.

Key:
[1] = molecular target: T1, Orexin receptor type 2 (Homo sapiens, UniProt O43614); assay: Counterscreen assay for antagonists of the orexin 1 receptor (OX1R; HCRTR1): Fluorescence-based cell-based dose response assay for antagonists of the orexin 2 receptor (OX2R; HCRTR2), run by assay provider.; assay type: functional
[2] = (§1) Counterscreen for antagonists of the orexin 1 receptor (OX1R; HCRTR1): Fluorescence-based cell-based high throughput dose response assay to identify antagonists of the parental CHO cell line. [Related pubchem assays (depositor defined):AID434989, AID435008, AID463079, AID485270, AID492963, AID492964, AID492965, AID493232, AID504699, AID504701]; assay type: functional
[3] = microbe, parasite or virus in culture; assay type: functional; conditions: Mycobacterium tuberculosis
[4] = molecular target: T1, Orexin receptor type 2; assay: Counterscreen assay for antagonists of the orexin 1 receptor (OX1R; HCRTR1): Homogeneous Time Resolved Fluorescence (HTRF)-based cell-based dose response assay for antagonists of the orexin 2 receptor (OX2R; HCRTR2), run by assay provider.; assay type: functional
[5] = molecular target: T2, Orexin/Hypocretin receptor type 1 (Homo sapiens, UniProt O43613); assay: Homogeneous Time Resolved Fluorescence (HTRF)-based cell-based high throughput dose response assay for antagonists of the orexin 1 receptor (OX1R; HCRTR1). [Related pubchem assays (depositor defined):AID434989, AID435008, AID463079, AID485270, AID492963, AID492964, AID492965, AID493232, AID504717, AID504718]; assay type: functional
T2 sequence (O43613 whole entry): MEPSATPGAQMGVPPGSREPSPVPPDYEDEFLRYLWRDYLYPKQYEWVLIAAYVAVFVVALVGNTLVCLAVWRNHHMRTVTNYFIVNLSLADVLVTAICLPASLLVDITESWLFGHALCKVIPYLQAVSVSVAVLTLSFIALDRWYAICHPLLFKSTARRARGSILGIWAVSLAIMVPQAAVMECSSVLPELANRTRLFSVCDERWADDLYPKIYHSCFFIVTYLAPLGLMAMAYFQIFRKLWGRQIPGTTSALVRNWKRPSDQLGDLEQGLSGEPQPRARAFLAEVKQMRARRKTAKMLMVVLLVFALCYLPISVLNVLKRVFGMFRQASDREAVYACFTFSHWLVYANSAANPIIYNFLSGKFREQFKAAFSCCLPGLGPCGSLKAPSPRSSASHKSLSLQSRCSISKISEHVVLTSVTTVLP

[6] = molecular target: T2, Orexin/Hypocretin receptor type 1; assay: Fluorescence-based cell-based high throughput dose response assay for antagonists of the orexin 1 receptor (OX1R; HCRTR1). [Related pubchem assays (depositor defined):AID434989, AID435008, AID463079, AID485270, AID492963, AID492964, AID492965, AID493232, AID504717, AID504718]; assay type: functional
[7] = tested on: CHO-K1; assay: as §1, with “Homogeneous time resolved fluorescence (HTRF)-based” for “Fluorescence-based”, “cell-based” for “cell-based high throughput”, “CHO-K1” for “CHO”; assay type: functional; conditions: Cricetulus griseus;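 further: potency for inhibition of ATP-stimulated IP1 production as antagonists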
[8] = tested on: MEF; assay: SAR analysis of small molecule cytotoxicity of MazEF TA System activators in embryonic fibroblast (MEF) cells. [Related pubchem assays (depositor defined):AID504720, AID504743]; assay type: functional; conditions: Mus musculus
[9] = molecular target: T3, Endoribonuclease toxin MazF (Escherichia coli K-12, UniProt P0AE70); assay: substrate-only fluorescence increase artefacts – biochemical, single-stranded RNase substrate, counter-screen for MazEF activator project, dose response (AID 588502); assay type: functional
T3 sequence (P0AE70 whole entry): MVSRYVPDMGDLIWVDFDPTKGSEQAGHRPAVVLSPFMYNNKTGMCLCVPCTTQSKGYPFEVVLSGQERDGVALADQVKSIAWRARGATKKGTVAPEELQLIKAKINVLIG

[10] = molecular target: T3, Endoribonuclease toxin MazF; assay: activation of MazEF endoribonuclease cleavage – biochemical, fluorescence, single-stranded RNA substrate, uHTS hits, dose response (AID 588481); assay type: functional
[11] = molecular target: T3, Endoribonuclease toxin MazF; assay: SAR analysis of small molecule activators of the MazEF TA System via a fluorescence-based single-stranded RNase assay counterscreen. [Related pubchem assays (depositor defined):AID504720, AID504743]; assay type: functional
[12] = molecular target: T3, Endoribonuclease toxin MazF; assay: MazEF toxin-antitoxin RNase activation – biochemical, fluorescence, single-stranded RNA substrate, SAR follow-up (AID 588603); assay type: functional
[13] = tested on: Candida albicans; assay: resistant Candida growth with fluconazole co-treatment – CaCi-8 strain, Alamar Blue, dry powder, set 3, dose response (AID 488905); assay type: functional, organism-based
[14] = tested on: Candida albicans; assay: Candida growth inhibition combined with fluconazole – CaCi-2 strain, Alamar Blue, dry powder, set 3, dose response (AID 488907); assay type: functional, organism-based
[15] = tested on: Candida albicans; assay: fluconazole-resistant Candida strain growth inhibitors – CaCi-8 strain, dry powder, set 4, dose response (AID 488950); assay type: functional, organism-based
[16] = tested on: Candida albicans; assay: single-agent toxicity toward C. albicans – CaCi-2 strain, no fluconazole, dry powder, set 4, counter-screen for reversing antifungal drug resistance, dose response (AID 488932); assay type: functional, organism-based
[17] = tested on: Candida albicans; assay: C. albicans growth inhibition with fluconazole – CaCi-2 strain, Alamar Blue, dry powder, set 4, dose response (AID 488943); assay type: functional, organism-based
[18] = molecular target: Phospholipase D1 (Homo sapiens, UniProt Q13393); assay: cellular phospholipase D1 inhibition IC50 – cell-based, dose response (AID 602151); assay type: functional;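 further: cellular PLD1 assay in Calu-1 cells stimulated with PMA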
[19] = molecular target: Phospholipase D2 (Homo sapiens, UniProt O14939); assay: cellular phospholipase D2 inhibition IC50 – cell-based, dose response (AID 602147); assay type: functional;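 further: cellular assay in HEK293 cells overexpressing GFP-tagged PLD2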
Phospholipase D2, sequence (O14939 whole entry): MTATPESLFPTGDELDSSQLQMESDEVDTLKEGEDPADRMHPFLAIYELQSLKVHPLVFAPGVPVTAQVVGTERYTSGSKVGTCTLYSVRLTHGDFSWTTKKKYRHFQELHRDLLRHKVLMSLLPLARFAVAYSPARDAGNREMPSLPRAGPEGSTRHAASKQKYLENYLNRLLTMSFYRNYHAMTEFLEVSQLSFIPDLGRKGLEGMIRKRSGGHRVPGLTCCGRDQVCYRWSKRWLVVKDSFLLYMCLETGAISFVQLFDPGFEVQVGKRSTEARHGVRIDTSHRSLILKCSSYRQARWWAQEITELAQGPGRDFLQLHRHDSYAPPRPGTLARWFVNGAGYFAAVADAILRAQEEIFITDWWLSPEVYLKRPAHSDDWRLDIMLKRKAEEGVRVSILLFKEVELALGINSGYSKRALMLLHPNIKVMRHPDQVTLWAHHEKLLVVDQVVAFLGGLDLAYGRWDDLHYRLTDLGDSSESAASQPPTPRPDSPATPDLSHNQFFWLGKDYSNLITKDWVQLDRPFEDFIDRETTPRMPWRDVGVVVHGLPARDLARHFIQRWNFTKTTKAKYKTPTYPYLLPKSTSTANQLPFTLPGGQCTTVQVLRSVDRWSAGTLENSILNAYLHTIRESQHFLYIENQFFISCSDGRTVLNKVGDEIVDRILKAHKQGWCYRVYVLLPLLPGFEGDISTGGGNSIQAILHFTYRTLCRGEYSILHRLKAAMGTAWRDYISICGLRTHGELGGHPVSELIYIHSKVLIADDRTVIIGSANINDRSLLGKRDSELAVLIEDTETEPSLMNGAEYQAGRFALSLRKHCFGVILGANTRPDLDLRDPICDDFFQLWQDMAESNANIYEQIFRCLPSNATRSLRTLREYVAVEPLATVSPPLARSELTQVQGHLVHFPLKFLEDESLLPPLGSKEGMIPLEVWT

T1 sequence (O43614 whole entry): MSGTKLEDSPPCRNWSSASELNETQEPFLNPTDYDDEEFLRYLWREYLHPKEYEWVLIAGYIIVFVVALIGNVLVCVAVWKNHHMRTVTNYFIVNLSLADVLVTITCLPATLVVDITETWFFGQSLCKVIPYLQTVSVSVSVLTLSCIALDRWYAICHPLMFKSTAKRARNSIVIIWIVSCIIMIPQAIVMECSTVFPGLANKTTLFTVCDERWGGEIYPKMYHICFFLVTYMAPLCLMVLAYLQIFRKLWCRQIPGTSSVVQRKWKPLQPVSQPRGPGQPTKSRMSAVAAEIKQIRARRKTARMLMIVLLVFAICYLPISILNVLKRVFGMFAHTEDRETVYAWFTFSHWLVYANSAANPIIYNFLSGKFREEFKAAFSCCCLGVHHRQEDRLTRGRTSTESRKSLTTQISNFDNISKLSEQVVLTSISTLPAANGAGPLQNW
Phospholipase D1, sequence (Q13393 whole entry): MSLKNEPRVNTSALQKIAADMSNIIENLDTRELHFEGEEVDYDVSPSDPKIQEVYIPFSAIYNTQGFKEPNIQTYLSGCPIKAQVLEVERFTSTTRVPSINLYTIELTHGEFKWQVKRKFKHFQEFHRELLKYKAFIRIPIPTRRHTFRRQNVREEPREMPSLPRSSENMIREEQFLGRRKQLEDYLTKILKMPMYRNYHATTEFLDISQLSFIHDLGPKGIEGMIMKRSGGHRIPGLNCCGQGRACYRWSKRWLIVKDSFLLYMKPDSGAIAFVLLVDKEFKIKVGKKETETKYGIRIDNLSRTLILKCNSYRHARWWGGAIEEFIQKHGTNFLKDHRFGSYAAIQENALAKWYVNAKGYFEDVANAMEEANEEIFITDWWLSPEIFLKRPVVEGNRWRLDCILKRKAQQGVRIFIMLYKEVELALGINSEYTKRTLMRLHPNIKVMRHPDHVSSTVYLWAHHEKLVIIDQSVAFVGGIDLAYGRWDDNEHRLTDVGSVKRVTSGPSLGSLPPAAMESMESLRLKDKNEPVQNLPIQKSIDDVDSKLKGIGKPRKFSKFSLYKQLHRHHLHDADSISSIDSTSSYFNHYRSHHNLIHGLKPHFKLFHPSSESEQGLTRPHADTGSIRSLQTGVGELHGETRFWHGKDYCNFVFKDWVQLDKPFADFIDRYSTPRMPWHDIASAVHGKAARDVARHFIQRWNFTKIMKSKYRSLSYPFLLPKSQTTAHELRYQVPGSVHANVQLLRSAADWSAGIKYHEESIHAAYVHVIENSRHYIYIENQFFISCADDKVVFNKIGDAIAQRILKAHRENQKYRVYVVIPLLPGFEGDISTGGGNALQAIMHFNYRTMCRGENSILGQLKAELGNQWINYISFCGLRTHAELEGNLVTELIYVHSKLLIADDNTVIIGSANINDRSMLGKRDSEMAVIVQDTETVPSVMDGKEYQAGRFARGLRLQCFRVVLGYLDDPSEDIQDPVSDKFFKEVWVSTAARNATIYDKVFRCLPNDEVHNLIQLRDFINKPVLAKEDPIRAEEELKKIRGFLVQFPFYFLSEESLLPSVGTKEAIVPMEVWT

## OCC1(Cc2cccc(Cl)c2)CCCN(Cc2ccc3cc(F)ccc3n2)C1 (centres undefined)
[1]
  IC50: 6.7 µM (active)
[2]
  IC50: 31.4 µM (inactive)
[3]
  CC50: > 40 µM (active)
[4]
  IC50: 25.1 µM (inactive)
[5]
  IC50: 6.33 µM (active)
[6]
  IC50: > 5.53 µM (active)
[7]
  IC50: > 66.2 µM (inactive)

## CCC(C)NC(=O)c1ccc(CNS(=O)(=O)c2ccc3c(c2)C(C)(C)C(=O)N3C)cc1 (centres undefined)
[8]
  CC50: > 99 µM (inactive)
[9]
  EC50: > 99 µM (inactive)
[10]
  EC50: 15.9 µM (active)
[11]
  EC50: > 99 µM (inactive)
[12]
  EC50: 21.8 µM (inactive)

## O=C(c1ccc(Cl)cc1)N1CCN(c2nccs2)CC1
[13]
  AC50: 20 µM (active)
[14]
  AC50: 0.555 µM (active)
[15]
  AC50: 3.77 µM (active)
[16]
  AC50: 195 µM (active)
[17]
  AC50: 3.24 µM (active)

## O=C(NCCN1CCC(n2c(=O)[nH]c3ccccc32)CC1)c1cc2ccccc2c2ccccc12
[18]
  IC50: 0.016 µM (active)
[19]
  IC50: 0.42 µM (active)
